Data as given in PubChem BioAssay AID248 (DTP/NCI, 2004).
“And” between values parts separate entries of the source, which are not always exact repeats. Equal values may be shown once. Inconclusive results and toxic doses are left out. No stated cut-off is given here; in the data, active means T/C of 150% or more; inactive means T/C below 125%. Peptide text beside a SMILES is read from it. * marks the point of attachment. Cbz = O=C(OCc1ccccc1)*; CH2Cl = ClC*

System: L1210 leukemia ip in BDF1 mice, survival T/C
Test: NCI In Vivo Anticancer Drug Screen. Data for tumor model L1210 Leukemia (intraperitoneal) in B6D2F1 (BDF1) mice
Details: endpoint: mean survival time, higher = longer survival
Method in brief: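 Read-out is survival time, reported as the treated-group measurement over the vehicle-control measurement.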

[1] = dose: 100.0 mg/kg/injection, schedule: Q01DX001 (ip), vehicle: saline
[2] = dose: 50.0 mg/kg/injection, schedule: Q01DX001 (ip), vehicle: Klucel (hydroxypropylcellulose) (HPC)
[3] = dose: 50.0 mg/kg/injection, schedule: Q01DX001 (ip), vehicle: saline
[4] = dose: 100.0 mg/kg/injection, schedule: Q01DX009 (ip), vehicle: Klucel (hydroxypropylcellulose) (HPC)
[5] = dose: 100.0 mg/kg/injection, schedule: Q04DX003 (ip), vehicle: Klucel (hydroxypropylcellulose) (HPC)
[6] = dose: 200.0 mg/kg/injection, schedule: Q01DX009 (ip), vehicle: Klucel (hydroxypropylcellulose) (HPC)
[7] = dose: 200.0 mg/kg/injection, schedule: Q04DX003 (ip), vehicle: Klucel (hydroxypropylcellulose) (HPC)
[8] = dose: 400.0 mg/kg/injection, schedule: Q01DX009 (ip), vehicle: Klucel (hydroxypropylcellulose) (HPC)
[9] = dose: 400.0 mg/kg/injection, schedule: Q04DX003 (ip), vehicle: Klucel (hydroxypropylcellulose) (HPC)
[10] = dose: 100.0 mg/kg/injection, schedule: Q01DX001 (ip), vehicle: Klucel (hydroxypropylcellulose) (HPC)
[11] = dose: 200.0 mg/kg/injection, schedule: Q01DX001 (ip), vehicle: Klucel (hydroxypropylcellulose) (HPC)
[12] = dose: 400.0 mg/kg/injection, schedule: Q01DX001 (ip), vehicle: Klucel (hydroxypropylcellulose) (HPC)
[13] = dose: 200.0 mg/kg/injection, schedule: Q01DX001 (ip), vehicle: saline
[14] = dose: 400.0 mg/kg/injection, schedule: Q01DX001 (ip), vehicle: saline
[15] = dose: 100.0 mg/kg/injection, schedule: Q01DX009 (ip), vehicle: saline
[16] = dose: 200.0 mg/kg/injection, schedule: Q01DX009 (ip), vehicle: saline
[17] = dose: 400.0 mg/kg/injection, schedule: Q01DX009 (ip), vehicle: saline
[18] = dose: 100.0 mg/kg/injection, schedule: Q04DX002 (ip), vehicle: Klucel (hydroxypropylcellulose) (HPC)
[19] = dose: 200.0 mg/kg/injection, schedule: Q04DX002 (ip), vehicle: Klucel (hydroxypropylcellulose) (HPC)
[20] = dose: 400.0 mg/kg/injection, schedule: Q04DX002 (ip), vehicle: Klucel (hydroxypropylcellulose) (HPC)

Measured: T/C

CCCc1nc2c(c(=O)n(C)c(=O)n2C)n1C
inactive: dose: 45.0 mg/kg/injection, schedule: Q01DX001 (ip), vehicle: saline 97 % of control and 98 % of control | dose: 67.0 mg/kg/injection, schedule: Q01DX001 (ip), vehicle: saline 97 % of control and 103 % of control | [1] 94 % of control and 101 % of control | dose: 150.0 mg/kg/injection, schedule: Q01DX001 (ip), vehicle: saline 98 % of control and 101 % of control

[C-]#[N+]C(C)(C)CC(C)(C)C
inactive: dose: 18.75 mg/kg/injection, schedule: Q04DX003 (ip), vehicle: acetone 103 % of control | dose: 33.0 mg/kg/injection, schedule: Q01DX001 (ip), vehicle: Klucel (hydroxypropylcellulose) (HPC) 110 % of control | dose: 33.0 mg/kg/injection, schedule: Q01DX001 (ip), vehicle: saline 104 % of control | dose: 37.5 mg/kg/injection, schedule: Q04DX003 (ip), vehicle: acetone 109 % of control | [2] 105 % of control | [3] 106 % of control | dose: 75.0 mg/kg/injection, schedule: Q01DX001 (ip), vehicle: Klucel (hydroxypropylcellulose) (HPC) 96 % of control | dose: 75.0 mg/kg/injection, schedule: Q01DX001 (ip), vehicle: saline 104 % of control | dose: 75.0 mg/kg/injection, schedule: Q04DX003 (ip), vehicle: acetone 107 % of control | dose: 110.0 mg/kg/injection, schedule: Q04DX003 (ip), vehicle: saline 94 % of control | dose: 170.0 mg/kg/injection, schedule: Q04DX003 (ip), vehicle: saline 106 % of control

COC(=O)c1[nH]cnc1N
inactive: dose: 50.0 mg/kg/injection, schedule: Q01DX001 (ip), vehicle: carboxymethylcellulose (CMC) 97 % of control | dose: 100.0 mg/kg/injection, schedule: Q01DX001 (ip), vehicle: carboxymethylcellulose (CMC) 105 % of control | dose: 200.0 mg/kg/injection, schedule: Q01DX001 (ip), vehicle: carboxymethylcellulose (CMC) 97 % of control | dose: 400.0 mg/kg/injection, schedule: Q01DX001 (ip), vehicle: carboxymethylcellulose (CMC) 94 % of control

CCCCC(C(C)=O)C(C)C (stereo not drawn)
inactive: [4] 94 % of control | [5] 100 % of control | [6] 91 % of control | [7] 96 % of control | [8] 95 % of control | [9] 92 % of control

CC(C)CC(NC(=O)OCc1ccccc1)C(=O)NC(Cc1ccccc1)C(=O)CCl (stereo not drawn) (Cbz-Leu-Phe-CH2Cl; configuration not given here)
inactive: dose: 25.0 mg/kg/injection, schedule: Q04DX003 (ip), vehicle: Klucel (hydroxypropylcellulose) (HPC) 104 % of control | dose: 50.0 mg/kg/injection, schedule: Q04DX003 (ip), vehicle: Klucel (hydroxypropylcellulose) (HPC) 102 % of control | [10] 90 % of control | [5] 96 % of control and 89 % of control | [11] 88 % of control | [12] 103 % of control

O=C(Nc1ccc(Cl)c(Cl)c1)OCCN1CCOCC1
inactive: [4] 92 % of control | [6] 94 % of control | [8] 92 % of control

CC(=O)OCC1OC(OC(C)=O)C(O)C(OC(C)=O)C1OC(C)=O (stereo not drawn)
inactive: [10] 113 % of control | [11] 102 % of control | [12] 117 % of control

CC(C)=C1C(=O)ON(c2ccccc2)C1=O
inactive: [2] 100 % of control | [10] 100 % of control | [5] 105 % of control | [11] 105 % of control | [7] 110 % of control | [12] 104 % of control | [9] 105 % of control

CCCCCCCCC(O)CCCC (stereo not drawn)
inactive: [4] 93 % of control | [5] 97 % of control | [6] 98 % of control | [7] 105 % of control | [8] 95 % of control | [9] 100 % of control

NC(=S)N/N=C/c1cccc(/C=N/NC(N)=S)c1
inactive: [3] 98 % of control | [1] 93 % of control | [13] 93 % of control | [14] 93 % of control

F[Si]1(c2cccc(Br)c2)c2ccccc2-c2ccccc21
inactive: dose: 100.0 mg/kg/injection, schedule: Q01DX001 (ip), vehicle: saline with Tween-80 103 % of control | dose: 100.0 mg/kg/injection, schedule: Q01DX009 (ip), vehicle: saline with Tween-80 103 % of control | dose: 200.0 mg/kg/injection, schedule: Q01DX001 (ip), vehicle: saline with Tween-80 100 % of control | dose: 200.0 mg/kg/injection, schedule: Q01DX009 (ip), vehicle: saline with Tween-80 101 % of control | dose: 400.0 mg/kg/injection, schedule: Q01DX001 (ip), vehicle: saline with Tween-80 100 % of control | dose: 400.0 mg/kg/injection, schedule: Q01DX009 (ip), vehicle: saline with Tween-80 104 % of control

O=C1NC(=O)N2CCSC2(Cc2ccccc2)N1 (stereo not drawn)
inactive: [3] 108 % of control | [1] 96 % of control | [13] 96 % of control | [14] 100 % of control

N#C/C(=N/O)c1ccccn1
inactive: [4] 96 % of control | [15] 100 % of control | [6] 100 % of control | [16] 107 % of control | [17] 92 % of control

Cc1ccc(C)c(NC(=O)C2CCCCC2C(=O)O)c1 (stereo not drawn)
inactive: [18] 118 % of control | [19] 96 % of control | [20] 103 % of control

O=C(O)CC(C(=O)O)C1C=CCC1 (stereo not drawn)
inactive: [15] 97 % of control | [16] 115 % of control | [17] 101 % of control

CCOC(=O)C1=C(C)NC(=O)NN1C(=O)OCC
inactive: dose: 50.0 mg/kg/injection, schedule: Q01DX009 (ip), vehicle: saline 113 % of control

CCCCOc1ccc(/C=N/NC(=S)Nc2ccccc2)cc1
inactive: [4] 97 % of control | [6] 98 % of control | [8] 95 % of control

CC12CCC3c4cc(N)c(O)cc4CCC3C1CCC2=O (stereo not drawn)
inactive: [18] 92 % of control | [19] 99 % of control | [20] 101 % of control

CCCCCC[Si](CCCCCC)CCCCCC
inactive: dose: 75.0 mg/kg/injection, schedule: Q04DX003 (ip), vehicle: saline with Tween-80 93 % of control | [15] 102 % of control | dose: 150.0 mg/kg/injection, schedule: Q04DX003 (ip), vehicle: saline with Tween-80 90 % of control | [16] 105 % of control | dose: 300.0 mg/kg/injection, schedule: Q04DX003 (ip), vehicle: saline with Tween-80 88 % of control | [17] 93 % of control

COC(=O)COc1c(C)cc(Cl)cc1Cl
inactive: dose: 100.0 mg/kg/injection, schedule: Q04DX002 (ip), vehicle: saline with Tween-80 96 % of control | dose: 200.0 mg/kg/injection, schedule: Q04DX002 (ip), vehicle: saline with Tween-80 86 % of control | dose: 400.0 mg/kg/injection, schedule: Q04DX002 (ip), vehicle: saline with Tween-80 98 % of control

Cc1c[n+]([O-])cc(C)c1N=Nc1ccc(N(C)C)cc1
inactive: dose: 100.0 mg/kg/injection, schedule: Q04DX003 (ip), vehicle: saline with Tween-80 103 % of control | dose: 200.0 mg/kg/injection, schedule: Q04DX003 (ip), vehicle: saline with Tween-80 96 % of control
